Measured values: US20090118471A1, “NOVEL COUMARIN DERIVATIVES” (The University of Tokyo, priority 2006, published 2009)
Counter-ions that a name gives are not always drawn.

Experiments:
[1] = in 0.1 mol/L sulfuric acid solution; value taken as standard; cited from earlier work
[2] = Fluorescence intensity after reaction with N-acetylcysteine; type: physicochemical; conditions: 5 μmol/L; after reaction with one molecule of cysteine (NAC); sodium phosphate buffer pH 7.4, 0.5% DMSO
Experimental: (§1) Compound 8 at a concentration of 5 μmol/L was added with N-acetylcysteine (NAC), Ac-AECACRA-OH peptide, or Ac-AECAACRA-OH peptide (C-terminus is carboxyl group, N-terminus is acetyl group (Ac), and amino acids are represented by the single letter codes), and fluorescence intensity was measured. For the reaction mixture, a 100 mmol/L sodium phosphate buffer (pH=7.4, containing 0.5% dimethyl sulfoxide as a cosolvent) was used.

[3] = Fluorescence intensity after reaction with peptides containing two neighboring cysteine residues; type: physicochemical; conditions: 5 μmol/L; after reaction with peptides containing two neighboring cysteine residues in the same molecule; sodium phosphate buffer pH 7.4, 0.5% DMSO
Experimental: as §1

Fluorescence [2] | Fluorescence [3] | Structure (SMILES) | Fluorescence quantum yield (reference standard) [1]
– | – | C=C[C@H]1C[N@@]2CC[C@H]1C[C@H]2[C@H](O)c1ccnc2ccc(OC)cc12 [quinine sulfate] | 0.577
substantially non-fluorescent | intensely fluorescent adducts | O=C(Cc1cc(=O)oc2cc(O)ccc12)NC1CC(N2C(=O)C=CC2=O)CC(N2C(=O)C=CC2=O)C1 (stereo not drawn) [Compound 8] | –
